Data published in US12384740B2, “Cationic lipids and transfection methods” (Factor Bioscience Inc., priority 2019, dated 2025).

Columns and labels:
Format in all cases: cell-based
[1] = test system: neonatal human epidermal keratinocytes (HEKn); test: Transfection of HEKn with GFP-encoding RNA complexed with lipid, mean fluorescence intensity per cell (Table 1); conditions: 20,000 HEKn per well, 24-well plate; 100 ng in vitro transcribed GFP RNA; 24 hours after transfection
Procedure: Stock solutions of lipid in ethanol were prepared at concentrations of between 5 mg/mL and 20 mg/mL and stored at −20° C. To perform transfections, nucleic acid was first diluted in DMEM (1 μg of nucleic acid in 50 μL of DMEM), then the desired amount of lipid stock solution was added. After adding the lipid, the solution was mixed thoroughly, and complexes were allowed to form for between about 5 minutes and about 25 minutes before adding to cells. For the experiments depicted in FIG. 1 through FIG. 6, the lipid was used without the acetone purification described in Example 5. Table 1 depicts the results of an experiment in which 20,000 neonatal human epidermal keratinocytes (HEKn) per well of a 24-well plate were transfected with 100 ng of in vitro transcribed RNA encoding green fluorescent protein (GFP) complexed with the indicated lipids. Fluorescence was measured 24 hours after transfection. Numbers indicate mean fluorescence intensity per cell (a.u.).

[2] = test system: confluent layer of primary human epidermal keratinocytes; test: Transfection of a confluent layer of primary human epidermal keratinocytes with GFP RNA (FIG. 5A/5B); conditions: 400 ng GFP RNA; 100% FBS; images 24 hours following transfection; both lipid-to-RNA mass ratios tested
Procedure: (§1) FIG. 1 depicts primary human epidermal keratinocytes cultured in a 24-well plate, and transfected with 400 ng per well of in vitro transcribed RNA encoding green fluorescent protein (GFP) complexed with the indicated lipid and with the indicated mass ratio of lipid to RNA. Complexation was performed in DMEM, and transfections were performed in 100% fetal bovine serum (FBS). Images were taken eight hours following transfection.
FIG. 5A depicts the results of an experiment conducted as in FIG. 4, but with a confluent layer of primary human epidermal keratinocytes instead of hPBMCs. Images were taken 24 hours following transfection.
FIG. 5B depicts the experiment of FIG. 5A, shown at higher magnification.
(§2) Stock solutions of lipid in ethanol were prepared at concentrations of between 5 mg/mL and 20 mg/mL and stored at −20° C. To perform transfections, nucleic acid was first diluted in DMEM (1 μg of nucleic acid in 50 μL of DMEM), then the desired amount of lipid stock solution was added. After adding the lipid, the solution was mixed thoroughly, and complexes were allowed to form for between about 5 minutes and about 25 minutes before adding to cells. For the experiments depicted in FIG. 1 through FIG. 6, the lipid was used without the acetone purification described in Example 5.

[3] = test system: primary human adult dermal fibroblasts; test: Transfection of primary human adult dermal fibroblasts with GFP RNA (FIG. 6A/6B); conditions: 400 ng GFP RNA; 100% FBS; images 16 hours following transfection; both lipid-to-RNA mass ratios tested
Procedure: as §1
FIG. 6A depicts the results of an experiment conducted as in FIG. 4, but with primary human adult dermal fibroblasts instead of hPBMCs. Images were taken 16 hours following transfection.
FIG. 6B depicts the experiment of FIG. 6A, shown at higher magnification.
as §2

[4] = test system: human peripheral blood mononuclear cells (hPBMCs); test: Transfection of hPBMCs with GFP RNA (FIG. 4); conditions: 400 ng GFP RNA; 100% FBS; images 16 hours following transfection; both lipid-to-RNA mass ratios tested
Procedure: as §1
FIG. 4 depicts the results of an experiment conducted as in FIG. 1, but with human peripheral blood mononuclear cells (hPBMCs) instead of keratinocytes. Images were taken 16 hours following transfection. “LF3000” indicates cells transfected with LIPOFECTAMINE 3000 (cationic liposome formulation) commercial transfection reagent. “Neg.” indicates un-transfected cells.
as §2

[5] = test system: primary human epidermal keratinocytes; test: Transfection of primary human epidermal keratinocytes with GFP RNA in 100% FBS (FIG. 1, 2, 7)
Procedure: as §1
FIG. 2 depicts the experiment of FIG. 1, with fluorescence measured at the indicated time points following transfection using DHDLinS.
FIG. 3 depicts the results of an experiment conducted as in FIG. 1, but with the indicated amounts of RNA (in nanograms) and the indicated lipid-to-RNA mass ratios (in micrograms of lipid per microgram of RNA). Images were taken 16 hours following transfection. As shown in the figure, all RNA amounts and lipid-to-RNA mass ratios tested yielded a fluorescent signal.
FIG. 7 depicts the results of an experiment conducted as in FIG. 3, but with DHDLinS purified by extraction with acetone as described in Example 5.
as §2

[6] = time course of FIG. 1 experiment, 400 ng GFP RNA, 100% FBS

Compound	Fluorescence Intensity (mean fluorescence intensity per cell) [1]	also measured
CCCCC/C=C\C/C=C\CCCCCCCCN(CCCCN(CCCCCCCC/C=C\C/C=C\CCCCC)CC(O)CN)CC(O)CN (centres unmarked) [DHDLinS, N^1,N^4-dilinoleyl-N^1,N^4-di-(2-hydroxy-3-aminopropyl)-diaminobutane]	8009 a.u.	Transfection of confluent keratinocytes (GFP fluorescence images) [2]: effectively transfected; Transfection of dermal fibroblasts (GFP fluorescence images) [3]: effectively transfected; Transfection of hPBMCs (GFP fluorescence images) [4]: effectively transfected; Transfection efficiency (GFP fluorescence images) ([5]; 400 ng GFP RNA per well, transfection in 100% FBS, images eight hours following transfection, lipid without acetone purification): transfected with high efficiency; Change of fluorescence signal with lipid-to-RNA mass ratio ([5]; DHDLinS purified by extraction with acetone, lipid-to-RNA mass ratios greater than 2 μg/μg, images 16 hours following transfection): minimal increase in fluorescence signal; Signal intensity and number of fluorescent cells over time [5, 6]: increased for several hours following transfection; Time of first detection of fluorescent signal following transfection [5, 6]: detected one hour following transfection
CCCCC/C=C\C/C=C\CCCCCCCCN(CCCCCN(CCCCCCCC/C=C\C/C=C\CCCCC)CC(O)CN)CC(O)CN (centres unmarked) [Formula I (n = 5), N^1,N^5-dilinoleyl-N^1,N^5-di-(2-hydroxy-3-aminopropyl)-diaminopentane]	7554 a.u.	
N^1,N^2-dilinoleyl-N^1,N^2-di-(2-hydroxy-3-aminopropyl)-diaminoethane [Formula I (n = 2)]	6623 a.u.	
CCCCC/C=C\C/C=C\CCCCCCCCN(CCCCCCN(CCCCCCCC/C=C\C/C=C\CCCCC)CC(O)CN)CC(O)CN (centres unmarked) [Formula I (n = 6), N^1,N^6-dilinoleyl-N^1,N^6-di-(2-hydroxy-3-aminopropyl)-diaminohexane]	8596 a.u.	
CCCCC/C=C\C/C=C\CCCCCCCCN(CCCCCCCCCCN(CCCCCCCC/C=C\C/C=C\CCCCC)CC(O)CN)CC(O)CN (centres unmarked) [Formula I (n = 10), N^1,N^10-dilinoleyl-N^1,N^10-di-(2-hydroxy-3-aminopropyl)-diaminodecane]	7842 a.u.	
CCCCC/C=C\C/C=C\CCCCCCCCN(CCCCCCCCCCCCN(CCCCCCCC/C=C\C/C=C\CCCCC)CC(O)CN)CC(O)CN (centres unmarked) [Formula I (n = 12), N^1,N^12-dilinoleyl-N,N^12-di-(2-hydroxy-3-aminopropyl)-diaminododecane]	5631 a.u.	
CCCCC/C=C\C/C=C\CCCCCCCCN(CCCCCCCCN(CCCCCCCC/C=C\C/C=C\CCCCC)CC(O)CN)CC(O)CN (centres unmarked) [Formula I (n = 8), N^1,N^8-dilinoleyl-N^1,N^8-di-(2-hydroxy-3-aminopropyl)-diaminooctane]	9170 a.u.	
